In patent US20150105386A1, “4-(4-PYRIDINYL)-BENZAMIDES AND THEIR USE AS ROCK ACTIVITY MODULATORS” (AbbVie Deutschland GmbH & Co KG, priority 2007, published 2015):

Molecular target: T1, hROCK-2 (Homo sapiens, UniProt O75116)
T1 construct: purchased Upstate
Assay: ROCK-2 Assay (33P-ATP FlashPlate kinase assay, biotinylated S6 peptide)
Format: biochemical
Conditions: hROCK-2 0.8 nM, 5 μM ATP, 1.5 μM biotinylated S6 peptide, room temperature, 60 min
Experimental: The reaction is stopped by addition of 150 μl of 0.1 M EDTA in Dulbecco's PBS. 170 μl from each well are loaded onto a FlashPlate (PerkinElmer) and incubated at room temperature for 30 min.

T1 sequence (O75116 whole entry): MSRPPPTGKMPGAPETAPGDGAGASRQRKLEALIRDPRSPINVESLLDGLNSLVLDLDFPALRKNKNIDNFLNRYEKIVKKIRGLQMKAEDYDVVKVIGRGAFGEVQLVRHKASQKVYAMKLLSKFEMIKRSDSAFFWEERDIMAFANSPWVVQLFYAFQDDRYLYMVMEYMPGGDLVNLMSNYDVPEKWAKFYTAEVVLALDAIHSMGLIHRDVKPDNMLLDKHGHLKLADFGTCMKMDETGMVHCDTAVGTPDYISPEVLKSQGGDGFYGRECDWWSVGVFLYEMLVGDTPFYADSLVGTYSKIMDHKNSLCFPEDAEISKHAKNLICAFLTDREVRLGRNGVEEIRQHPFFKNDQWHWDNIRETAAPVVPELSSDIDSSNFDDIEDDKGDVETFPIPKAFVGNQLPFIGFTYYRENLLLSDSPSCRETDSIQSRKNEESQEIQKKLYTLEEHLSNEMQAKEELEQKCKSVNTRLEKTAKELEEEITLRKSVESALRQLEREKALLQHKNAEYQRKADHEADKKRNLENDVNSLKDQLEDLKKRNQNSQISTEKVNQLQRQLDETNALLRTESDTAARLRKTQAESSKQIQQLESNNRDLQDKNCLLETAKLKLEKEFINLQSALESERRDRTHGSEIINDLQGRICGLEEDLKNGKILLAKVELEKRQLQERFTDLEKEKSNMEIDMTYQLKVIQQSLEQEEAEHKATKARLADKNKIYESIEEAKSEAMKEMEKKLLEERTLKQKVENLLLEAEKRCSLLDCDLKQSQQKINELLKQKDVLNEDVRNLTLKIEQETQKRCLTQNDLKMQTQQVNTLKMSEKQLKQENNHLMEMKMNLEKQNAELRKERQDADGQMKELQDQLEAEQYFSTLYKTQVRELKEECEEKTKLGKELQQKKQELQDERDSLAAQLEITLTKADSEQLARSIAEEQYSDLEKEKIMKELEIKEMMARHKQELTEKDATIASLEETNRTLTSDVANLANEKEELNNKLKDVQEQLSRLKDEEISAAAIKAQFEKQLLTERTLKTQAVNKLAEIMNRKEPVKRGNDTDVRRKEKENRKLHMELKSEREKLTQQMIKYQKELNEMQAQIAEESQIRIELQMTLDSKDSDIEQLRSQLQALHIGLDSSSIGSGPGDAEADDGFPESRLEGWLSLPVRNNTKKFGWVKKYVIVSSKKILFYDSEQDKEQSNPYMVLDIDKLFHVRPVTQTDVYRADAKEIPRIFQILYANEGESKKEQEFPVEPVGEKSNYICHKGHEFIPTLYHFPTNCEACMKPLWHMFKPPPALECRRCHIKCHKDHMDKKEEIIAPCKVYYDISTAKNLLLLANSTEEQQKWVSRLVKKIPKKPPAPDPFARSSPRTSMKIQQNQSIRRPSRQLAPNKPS

Row | Ki [nM] | Compound
1 | < 50 | COc1cccc([C@@H](C)NC(=O)c2ccc(-c3ccncc3F)cc2OC)c1 [Example 247, 4-(3-fluoro-pyridin-4-yl)-2-methoxy-N—[(R)-1-(3-methoxy-phenyl)-ethyl]-benzamide]
2 | < 50 | COc1cccc([C@@H](C)NC(=O)c2ccc(-c3cc(F)ncc3C)cc2)c1 [Example 248, 4-(2-fluoro-5-methyl-pyridin-4-yl)-N—[(R)-1-(3-methoxy-phenyl)-ethyl]-benzamide]
3 | < 50 | CCOc1cc(-c2ccncc2)ccc1C(=O)N[C@H](C)c1cccc(OC)c1 [Example 249, 2-ethoxy-N—[(R)-1-(3-methoxy-phenyl)-ethyl]-4-pyridin-4-yl-benzamide]
